Experimental data taken from ChEMBL document CHEMBL1155770, “New guinea pig model of Cryptococcal meningitis” (2007).
≈ marks a conversion by molar mass, not a printed value. Calls of active or inactive are those of the source. No cut-off for these calls is given here.

Tests used:
Cryptococcus neoformans [1] = experiment: Antimicrobial activity against Cryptococcus neoformans USC1597 isolate after 72 hrs; format: functional
Cryptococcus neoformans [2] = experiment: Antimicrobial activity against 9 x 10^6 CFU Cryptococcus neoformans USC1597 isolate intracranially infected in Hartley guinea pig assessed as brain […] count per gram at 5 mg/kg, po BID administered 48 hrs postinfection for 13 days; format: functional
Cryptococcus neoformans [3] = experiment: Antimicrobial activity against 9 x 10^6 CFU Cryptococcus neoformans USC1597 isolate intracranially infected in Hartley guinea pig assessed as kidney […] count per gram at 5 mg/kg, po BID administered 48 hrs postinfection for 13 days; format: functional
Cryptococcus neoformans [4] = experiment: Antimicrobial activity against 10^7 CFU Cryptococcus neoformans USC1597 isolate intracranially infected in Hartley guinea pig assessed as decrease in cerebrospinal fluid […] count at 5 mg/kg, po BID administered 48 hrs postinfection for 13 days; format: functional
Cryptococcus neoformans [5] = experiment: Antimicrobial activity against 10^7 CFU Cryptococcus neoformans USC1597 isolate intracranially infected in Hartley guinea pig assessed as decrease in cerebrospinal fluid […] count per ml at 10 mg/kg, po BID administered 48 hrs postinfection for 13 days; format: functional
Cryptococcus neoformans [6] = experiment: Antimicrobial activity against 10^7 CFU Cryptococcus neoformans USC1597 isolate intracranially infected in Hartley guinea pig assessed as decrease in cerebrospinal fluid […] count at 20 mg/kg, po BID administered 48 hrs postinfection for 13 days; format: functional
Cryptococcus neoformans [7] = experiment: Antimicrobial activity against 9 x 10^6 CFU Cryptococcus neoformans USC1597 isolate intracranially infected in Hartley guinea pig assessed as cerebrospinal fluid […] count per ml at 5 mg/kg, po BID administered 48 hrs postinfection for 13 days; format: functional
Cryptococcus neoformans [8] = experiment: Antimicrobial activity against 10^7 CFU Cryptococcus neoformans USC1597 isolate intracranially infected in Hartley guinea pig assessed as decrease in brain […] count at 10 mg/kg, po BID administered 48 hrs postinfection for 13 days; format: functional
Cryptococcus neoformans [9] = experiment: Antimicrobial activity against 10^7 CFU Cryptococcus neoformans USC1597 isolate intracranially infected in Hartley guinea pig assessed as decrease in brain […] count at 20 mg/kg, po BID administered 48 hrs postinfection for 13 days; format: functional
Cryptococcus neoformans [10] = experiment: Antimicrobial activity against 10^7 CFU Cryptococcus neoformans USC1597 isolate intracranially infected in Hartley guinea pig assessed as decrease in brain […] count at 5 mg/kg, po BID administered 48 hrs postinfection for 13 days; format: functional
Cryptococcus neoformans [11] = experiment: Antimicrobial activity against 9 x 10^6 CFU Cryptococcus neoformans USC1597 isolate intracranially infected in Hartley guinea pig assessed as cerebrospinal fluid […] count per ml at 10 mg/kg, po BID administered 48 hrs postinfection for 13 days; format: functional
Cryptococcus neoformans [12] = experiment: Antimicrobial activity against 9 x 10^6 CFU Cryptococcus neoformans USC1597 isolate intracranially infected in Hartley guinea pig assessed as kidney […] count per gram at 10 mg/kg, po BID administered 48 hrs postinfection for 13 days; format: functional
Cryptococcus neoformans [13] = experiment: Antimicrobial activity against 10^7 CFU Cryptococcus neoformans USC1597 isolate intracranially infected in Hartley guinea pig assessed as decrease in kidney […] count at 10 mg/kg, po BID administered 48 hrs postinfection for 13 days; format: functional, organism-based; design: dose 10 mg/kg; conditions: […]
Cryptococcus neoformans [14] = experiment: Antimicrobial activity against 9 x 10^6 CFU Cryptococcus neoformans USC1597 isolate intracranially infected in Hartley guinea pig assessed as brain […] count per gram at 10 mg/kg, po BID administered 48 hrs postinfection for 13 days; format: functional

SMILES | MIC (Cryptococcus neoformans [1]) | log10cfu (Cryptococcus neoformans [2]) | log10cfu (Cryptococcus neoformans [3]) | log10cfu (Cryptococcus neoformans [4]) | log10cfu (Cryptococcus neoformans [5]) | log10cfu (Cryptococcus neoformans [6]) | log10cfu (Cryptococcus neoformans [7]) | log10cfu (Cryptococcus neoformans [8]) | log10cfu (Cryptococcus neoformans [9]) | log10cfu (Cryptococcus neoformans [10]) | log10cfu (Cryptococcus neoformans [11]) | log10cfu (Cryptococcus neoformans [12]) | Activity (Cryptococcus neoformans [13]) | log10cfu (Cryptococcus neoformans [14])
C[C@@H]1[C@H](O)[C@@H](C)/C=C/C=C/C=C/C=C/C=C/C=C/C=C/[C@H](O[C@@H]2O[C@H](C)[C@@H](O)[C@H](N)[C@@H]2O)C[C@@H]2O[C@](O)(C[C@@H](O)C[C@@H](O)[C@H](O)CC[C@@H](O)C[C@@H](O)CC(=O)O[C@H]1C)C[C@H](O)[C@H]2C(=O)O [AMPHOTERICIN B] | 0.25 µg/mL (≈ 0.271 µM) |  |  |  |  |  |  |  |  |  |  |  |  | 
C[C@@H](c1ncncc1F)[C@](O)(Cn1cncn1)c1ccc(F)cc1F [VORICONAZOLE] | 0.006 µg/mL (≈ 0.0172 µM) | 5.99 | 3.01 | 0.7 | 1.6 | 1 | 4.11 | 1.5 | 1.5 | 1 |  |  |  | 
OC(Cn1cncn1)(Cn1cncn1)c1ccc(F)cc1F [FLUCONAZOLE] | 1 µg/mL (≈ 3.27 µM) |  |  |  | 1 |  |  | 2 |  |  | 3.18 | 2.43 | Active | 5.25
